Measurements taken from US9074014B2 (Ipsen Pharma S.A.S., priority 2008, dated 2015).
*1 amine or outer side, *2 acyl side, *3 side chain or, on linkers, in order; H or OH if unused. Where a SMILES comes first, the peptide text is derived from it. Where no end group is shown, it is not given here. [ ]: non-standard residue; d: D form. The star is where a group is joined. Desaminotyrosyl = O=C(CCc1ccc(O)cc1)*; X2 = O=C([C@@H]1CC(O)CN1[*:1])[*:2]; Tic = O=C(O)[C@@H]1Cc2ccccc2CN1; Ac6c = NC1(C(=O)O)CCCCC1; Nle = CCCC[C@H](N)C(=O)O; X1 = CCCN1C(=O)CC(*)C1=O; Ac5c = NC1(C(=O)O)CCCC1; Aib = CC(C)(N)C(=O)O

Key:
[1] = Human plasma half-life assay; type: in vitro ADME; details: human plasma, 37° C., LC-MS; for half-life at 0.1 mg/ml: read-out: Human Plasma T½ (converted)
[2] = Rat plasma half-life assay; type: in vitro ADME; details: rat plasma, 37° C., LC-MS; for half-life at 0.1 mg/ml: read-out: Rat Plasma T½ (converted)

Compound | half-life at 0.1 mg/ml [1] | half-life at 0.1 mg/ml [2] | Human Plasma T½ [1] | Rat Plasma T½ [2]
CC[C@H](C)[C@H](NC(=O)[C@H](CO)NC(=O)[C@H](Cc1ccc(O)cc1)NC(=O)[C@H](CC(=O)O)NC(=O)[C@H](CO)NC(=O)C1(NC(=O)[C@H](Cc2ccccc2)NC(=O)[C@@H](NC(=O)CNC(=O)[C@H](CCC(=O)O)NC(=O)C(C)(C)NC(=O)[C@@H](N)Cc2ccc(O)cc2)[C@@H](C)O)CCCCC1)C(=O)N[C@@H](C)C(=O)N[C@@H](CCSC)C(=O)N[C@@H](CC(=O)O)C(=O)N[C@@H](CCCCN)C(=O)N[C@H](C(=O)N[C@@H](Cc1c[nH]cn1)C(=O)N[C@@H](CCC(N)=O)C(=O)N[C@@H](CCC(N)=O)C(=O)N[C@@H](CC(=O)O)C(=O)N[C@@H](Cc1ccccc1)C(=O)N[C@H](C(=O)N[C@@H](CC(N)=O)C(=O)N[C@@H](Cc1c[nH]c2ccccc12)C(=O)N[C@@H](CC(C)C)C(=O)N[C@@H](CC(C)C)C(=O)N[C@@H](C)C(=O)N[C@@H](CCC(N)=O)C(=O)N[C@@H](CCCCN)C(N)=O)C(C)C)[C@@H](C)CC [Example 52, (Aib^2, A6c^7)hGIP(1-30)-NH2] | 14 h | 28.2 h | – | –
YA[Tic]GTFISDY[Ac5c]IA[Ac6c]DKIHQQDFVNWLLAQKGKKNDWKHNITQ-OH [Example 89, (Tic^3, A5c^11, A6c^14)hGIP(1-42)-OH] | > 48 h | 11.8 h | – | –
CC[C@H](C)[C@H](NC(=O)[C@H](CCCCN)NC(=O)[C@H](CC(=O)O)NC(=O)[C@H](CCSC)NC(=O)[C@H](C)NC(=O)[C@@H](NC(=O)C(C)(C)NC(=O)[C@H](Cc1ccc(O)cc1)NC(=O)[C@H](CC(=O)O)NC(=O)[C@H](CO)NC(=O)[C@@H](NC(=O)[C@H](Cc1ccccc1)NC(=O)[C@@H](NC(=O)CNC(=O)[C@H](CCC(=O)O)NC(=O)C(C)(C)NC(=O)[C@@H](N)Cc1ccc(O)cc1)[C@@H](C)O)[C@@H](C)CC)[C@@H](C)CC)C(=O)N[C@@H](Cc1c[nH]cn1)C(=O)N[C@@H](CCC(N)=O)C(=O)N[C@@H](CCC(N)=O)C(=O)N[C@@H](CC(=O)O)C(=O)N[C@@H](Cc1ccccc1)C(=O)N[C@H](C(=O)N[C@@H](CC(N)=O)C(=O)N[C@@H](Cc1c[nH]c2ccccc12)C(=O)N[C@@H](CC(C)C)C(=O)N[C@@H](CC(C)C)C(=O)N[C@@H](C)C(=O)N[C@@H](CCC(N)=O)C(=O)N[C@@H](CCCCN)C(N)=O)C(C)C [Example 19, (Aib^2, 11)hGIP(1-30)-NH2] (H-Y[Aib]EGTFISDY[Aib]IAMDKIHQQDFVNWLLAQK-NH2; N-terminus assumed) | 27.2 h | > 48 h | – | –
Y[Aib]EGTF[Ac6c]SDYSIA[Nle]DKIHQQDFVNWLLAQKGKKNDWKHNITQ-OH [Example 55, (Aib^2, A6c^7, Nle^14)hGIP(1-42)-OH] | 8.8 h | 11.7 h | – | –
H-YA[X2]GTFISDY[Ac5c]IAMDKIHQQDFVNWLLAQKGKKNDWKHNITQ-OH [Example 87, (4Hyp^3, A5c^11)hGIP(1-42)-OH] | 38.7 h | 3.4 h | – | –
Y[Aib]EGTFISDY[Ac5c]IA[Ac6c]DKIHQQDFVNWLLAQKGKKNDWKHNITQ-OH [Example 61, (Aib^2, A5c^11, A6c^14)hGIP(1-42)-OH] | > 48 h | 45.3 h | – | –
YAPGTFISDYSI[Aib][Nle]DKIHQQDFVNWLLAQKGKKNDWKHNITQ-OH [Example 62, (Pro^3, Aib^13, Nle^14)hGIP(1-42)-OH] | 11.4 h | 1.4 h | – | –
Y[Aib]EGTF[Ac6c]SDYSIA[Nle]DK[Ac6c]HQQDFVNWLLAQKGKKNDWKHNITQ-OH [Example 37, (Aib^2, A6c^7, 17, Nle^14)hGIP(1-42)-OH] | > 48 h | 14 h | – | –
Y[Aib]E[Aib]TFISDYSIAMDKIHQQDFVNWLLAQKGKKNDWKHNITQ-OH [Example 10, (Aib^2, 4)hGIP(1-42)-OH] | > 48 h | 4 h | – | –
YAPGTFISDY[Ac5c]IA[Ac6c]DKIHQQDFVNWLLAQKGKKNDWKHNITQ-OH [Example 102, (Pro^3, A5c^11, A6c^14)hGIP(1-42)-OH] | 54.1 h | 1.7 h | – | –
Y[Aib]EGTF[Ac5c]SDYSIA[Ac5c]DKIHQQDFVNWLLAQKGKKNDWKHNITQ-OH [Example 59, (Aib^2, A5c^7, 14)hGIP(1-42)-OH] | 24 h | 13.1 h | – | –
Y[Aib]EGTFISDY[Aib]IAMDKIHQQDFVNWLLAQKGKKNDWKHNITQ-OH [Example 1, (Aib^2, 11)hGIP(1-42)-OH] | > 48 h | 3.9 h | – | –
CCCC[C@H](NC(=O)[C@H](C)NC(=O)[C@@H](NC(=O)C(C)(C)NC(=O)[C@H](Cc1ccc(O)cc1)NC(=O)[C@H](CC(=O)O)NC(=O)[C@H](CO)NC(=O)[C@@H](NC(=O)[C@H](Cc1ccccc1)NC(=O)[C@@H](NC(=O)CNC(=O)[C@H](CCC(=O)O)NC(=O)C(C)(C)NC(=O)[C@@H](N)Cc1ccc(O)cc1)[C@@H](C)O)[C@@H](C)CC)[C@@H](C)CC)C(=O)N[C@@H](CC(=O)O)C(=O)N[C@@H](CCCCN)C(=O)N[C@H](C(=O)N[C@@H](Cc1c[nH]cn1)C(=O)N[C@@H](CCC(N)=O)C(=O)N[C@@H](CCC(N)=O)C(=O)N[C@@H](CC(=O)O)C(=O)N[C@@H](Cc1ccccc1)C(=O)N[C@H](C(=O)N[C@@H](CC(N)=O)C(=O)N[C@@H](Cc1c[nH]c2ccccc12)C(=O)N[C@@H](CC(C)C)C(=O)N[C@@H](CC(C)C)C(=O)N[C@@H](C)C(=O)N[C@@H](CCC(N)=O)C(=O)N[C@@H](CCCCN)C(N)=O)C(C)C)[C@@H](C)CC [Example 33, (Aib^2, 11, Nle^14)hGIP(1-30)-NH2] (H-Y[Aib]EGTFISDY[Aib]IA[Nle]DKIHQQDFVNWLLAQK-NH2; N-terminus assumed) | > 48 h | 34 h | – | –
CC[C@H](C)[C@H](NC(=O)[C@H](CCCCN)NC(=O)[C@H](CC(=O)O)NC(=O)C1(NC(=O)[C@H](C)NC(=O)[C@@H](NC(=O)C2(NC(=O)[C@H](Cc3ccc(O)cc3)NC(=O)[C@H](CC(=O)O)NC(=O)[C@H](CO)NC(=O)[C@@H](NC(=O)[C@H](Cc3ccccc3)NC(=O)[C@@H](NC(=O)CNC(=O)[C@H](CCC(=O)O)NC(=O)C(C)(C)NC(=O)[C@@H](N)Cc3ccc(O)cc3)[C@@H](C)O)[C@@H](C)CC)CCCC2)[C@@H](C)CC)CCCCC1)C(=O)N[C@@H](Cc1c[nH]cn1)C(=O)N[C@@H](CCC(N)=O)C(=O)N[C@@H](CCC(N)=O)C(=O)N[C@@H](CC(=O)O)C(=O)N[C@@H](Cc1ccccc1)C(=O)N[C@H](C(=O)N[C@@H](CC(N)=O)C(=O)N[C@@H](Cc1c[nH]c2ccccc12)C(=O)N[C@@H](CC(C)C)C(=O)N[C@@H](CC(C)C)C(=O)N[C@@H](C)C(=O)N[C@@H](CCC(N)=O)C(=O)N[C@@H](CCCCN)C(N)=O)C(C)C [Example 48, (Aib^2, A5c^11, A6c^14)hGIP(1-30)-NH2] | > 56 h | > 54 h | – | –
CCCC[C@H](NC(=O)C(C)(C)NC(=O)[C@@H](NC(=O)[C@H](CO)NC(=O)[C@H](Cc1ccc(O)cc1)NC(=O)[C@H](CC(=O)O)NC(=O)[C@H](CO)NC(=O)[C@@H](NC(=O)[C@H](Cc1ccccc1)NC(=O)[C@@H](NC(=O)CNC(=O)[C@H](CCC(=O)O)NC(=O)C(C)(C)NC(=O)[C@@H](N)Cc1ccc(O)cc1)[C@@H](C)O)[C@@H](C)CC)[C@@H](C)CC)C(=O)N[C@@H](CC(=O)O)C(=O)N[C@@H](CCCCN)C(=O)N[C@H](C(=O)N[C@@H](Cc1c[nH]cn1)C(=O)N[C@@H](CCC(N)=O)C(=O)N[C@@H](CCC(N)=O)C(=O)N[C@@H](CC(=O)O)C(=O)N[C@@H](Cc1ccccc1)C(=O)N[C@H](C(=O)N[C@@H](CC(N)=O)C(=O)N[C@@H](Cc1c[nH]c2ccccc12)C(=O)N[C@@H](CC(C)C)C(=O)N[C@@H](CC(C)C)C(=O)N[C@@H](C)C(=O)N[C@@H](CCC(N)=O)C(=O)N[C@@H](CCCCN)C(N)=O)C(C)C)[C@@H](C)CC [Example 49, (Aib^2, 13, Nle^14)hGIP(1-30)-NH2] (H-Y[Aib]EGTFISDYSI[Aib][Nle]DKIHQQDFVNWLLAQK-NH2; N-terminus assumed) | – | – | >56 h | 45.0 h
Y[dA]EGTFISDY[Ac5c]IAMDKIHQQDFVNWLLAQKGKKNDWKHN[Ac5c]TQ-OH [Example 104, (D-Ala^2, A5c^11,40)hGIP(1-42)-OH] | 20.2 h | 14.8 h | – | –
Y[Aib]EGTF[Ac6c]SDYSIAMDKIHQQDFVNWLLAQKGKKNDWKC(X1)NITQ-OH [Example 80, [Aib^2, A6c^7, Cys(Psu)^38]hGIP(1-42)-OH] | > 54 h | 5.5 h | – | –
CC[C@H](C)[C@H](NC(=O)[C@H](CO)NC(=O)[C@H](Cc1ccc(O)cc1)NC(=O)[C@H](CC(=O)O)NC(=O)[C@H](CO)NC(=O)C1(NC(=O)[C@H](Cc2ccccc2)NC(=O)[C@@H](NC(=O)CNC(=O)[C@@H]2CCCN2C(=O)[C@H](C)NC(=O)[C@@H](N)Cc2ccc(O)cc2)[C@@H](C)O)CCCC1)C(=O)N[C@@H](C)C(=O)NC1(C(=O)N[C@@H](CC(=O)O)C(=O)N[C@@H](CCCCN)C(=O)N[C@H](C(=O)N[C@@H](Cc2c[nH]cn2)C(=O)N[C@@H](CCC(N)=O)C(=O)N[C@@H](CCC(N)=O)C(=O)N[C@@H](CC(=O)O)C(=O)N[C@@H](Cc2ccccc2)C(=O)N[C@H](C(=O)N[C@@H](CC(N)=O)C(=O)N[C@@H](Cc2c[nH]c3ccccc23)C(=O)N[C@@H](CC(C)C)C(=O)N[C@@H](CC(C)C)C(=O)N[C@@H](C)C(=O)N[C@@H](CCC(N)=O)C(=O)N[C@@H](CCCCN)C(=O)NCC(=O)N[C@@H](CCCCN)C(=O)N[C@@H](CCCCN)C(=O)N[C@@H](CC(N)=O)C(=O)N[C@@H](CC(=O)O)C(=O)N[C@@H](Cc2c[nH]c3ccccc23)C(=O)N[C@@H](CCCCN)C(=O)N[C@@H](Cc2c[nH]cn2)C(=O)N[C@@H](CC(N)=O)C(=O)N[C@H](C(=O)N[C@H](C(=O)N[C@@H](CCC(N)=O)C(=O)O)[C@@H](C)O)[C@@H](C)CC)C(C)C)[C@@H](C)CC)CCCC1 [Example 76, (Pro^3, A5c^7, 14)hGIP(1-42)-OH] | 55.9 h | 1 h | – | –
Desaminotyrosyl-AEGTFISDYSI[Aib]MDKIHQQDFVNWLLAQKGKKNDWKHNITQ-OH [Example 101, (4Hppa^1, Aib^13)hGIP(1-42)-OH] | 47.5 h | 13.4 h | – | –
